Assay results from BindingDB's records for doi:10.1016/0960-894X(95)00024-N (1995).

Assay: Concentration required for the in vitro inhibition of Acyl coenzyme A:cholesterol acyltransferase (ACAT) in intestinal microsomes isolated from cholesterol-fed rabbits

Row | IC50 | SMILES
1 | 0.44 µM | CCCCCCCCCCCCCCCn1nnc(C(NC(=O)c2c(C)cccc2C)c2ccccc2)n1 (configuration not stated) [2,6-Dimethyl-N-[(2-pentadecyl-2H-tetrazol-5-yl)-phenyl-methyl]-benzamide]
2 | 3.7 µM | CCCCCCCn1nnc(C(NC(=O)c2c(C)cccc2C)c2ccccc2)n1 (configuration not stated) [N-[(2-Heptyl-2H-tetrazol-5-yl)-phenyl-methyl]-2,6-dimethyl-benzamide]
